Data as given in US20080255498A1, “Sensitizer Solutions, Systems, and Methods of Use” (priority 2005, published 2008).

Assay: Spectral absorption of light of sensitizer solutions (FIG. 2A, 2B)
Format: physicochemical
Excerpt: FIG. 2A is a graphic representation of spectral absorption of light for two embodiments of the sensitizer solution plotting absorbance versus wavelength in nm.
FIG. 2B is a graphic representation of the spectral absorption of light for four embodiments of the sensitizer solution plotting absorbance versus wavelength in nm.
FIGS. 2A and 2B illustrate that the sensitizer solution 12 has an electromagnetic energy absorption level dependent on the frequency (i.e., wavelength) of the electromagnetic energy. […] See U.S. Pat. No. 6,561,808 by Neuberger.

With `C=Cc1c(C)c2cc3nc(c(CC(=O)O)c4[nH]c(cc5nc(cc1[nH]2)C(C)=C5CC)c(C)c4C(=O)O)[C@@H](CCC(=O)O)[C@@H]3C` [chlorin e6] the “absorption spectrum primary peak” value was “about 665 nm”, the “absorption spectrum secondary peak” value was “about 575 nm” and the “absorption spectrum tertiary peak” value was “about 515 nm”.
With silicon naphthalocyanine the “absorption spectrum primary peak” value was “about 773 nm”, the “absorption spectrum secondary peak” value was “about 690 nm” and the “absorption spectrum tertiary peak” value was “about 735 nm”.
For bacteriochlorin a, the “absorption spectrum primary peak” value was “about 765 nm” and the “absorption spectrum secondary peak” value was “about 605 nm”.
